Patent US20250034161A1, “SPIROCYCLIC COMPOUND AS KRAS-G12C INHIBITOR” (Shanghai Euregen Biopharma Co., Ltd., priority 2020, published 2025)

Legend:
CYP 2C19 = CYP 2C19 (Homo sapiens, UniProt P33261); assay: CYP inhibition test, human liver microsomes, CYP2C19
Method: • 1. Test purpose: to evaluate the inhibitory ability of some of the example compounds of the present invention against CYP1A2, 2B6, 2C8, 2C9, 2C19, 2D6 and 3A4 via human liver microsomes. • 2. […] Test method:
• 1. K/Mg buffer: the components were 0.1 mol/L potassium phosphate and 5 mmol/L magnesium chloride with pH 7.4±0.1, preheated. • 2. Solution of the test compound: the test compound was dissolved in dimethyl sulfoxide to prepare a stock solution of 10 mmol/L. 8 μL of 10 mmol/L stock solution was transferred to a 96-well plate containing 12 μL of acetonitrile as the highest concentration point, at 3-fold dilution, for 8 concentrations. • 3. NADPH solution: 66.7 mg of NADPH was dissolved in 10 mL of 0.1 mol/L K/Mg buffer to obtain 8 mmol/L NADPH solution with pH 7.4. • 4. Human liver microsomal stock solution: human liver microsomes were dissolved in 0.1 mol/L K/Mg buffer to obtain 20 mg/mL stock solution. • 5. Human liver microsomal working solution: 10 μL of 20 mg/mL human liver microsomal stock solution was taken and added into 990 μL of 0.1 mol/L K/Mg buffer to prepare 0.2 mg/mL human liver microsomal solution. • 6. […]

[1] = Pharmacokinetic properties in rats (IV and PO, LC-MS/MS); type: in vivo; conditions: for F: SD rats; for AUC(0-inf) / Cmax / clearance / half-life / Vd: male, Sprague-Dawley (SD), rat, plasma; for Vd: read-out: Vz
Method: • 1. Test purpose: to determine the pharmacokinetic characteristics of some of the example compound of the present invention in SD rats after single intravenous injection(IV) and oral administration(PO) by LC-MS/MS method. • 2. […] Animal production license number (SCXK (Shanghai) 2018-0006). • 3. Test method:
Preparation of 0.5% methyl cellulose: 5 g of methyl cellulose were weighed and dissolved in 1000 mL of purified water.
Preparation of oral formulation: A required amount of test compound was weighed and dissolved in 0.5% methyl cellulose solution to obtain a suspension or solution of 0.5 mg/mL.
Preparation of intravenous injection formulation: A required amount of test compound was weighed, and dissolved in 0.5 mL of dimethyl sulfoxide to prepare a solution of 4 mg/mL. 0.25 mL of the above solution was added into 0.5 mL of polyethylene glycol 15 hydroxystearate (solutol) and 4.25 mL of normal saline to obtain a solution of 0.2 mg/mL.
The dosage and volume administered were shown in the table below Feeding, 4 hours after administration
Sample Collection: blood is collected through jugular vein or other suitable vein, and 0.2 mL of blood was collected at each time point. Samples were placed into tubes containing ethylenediaminetetraacetic acid dipotassium salt and kept on ice before centrifugation. Within 1 hour after blood collection, the blood samples were centrifuged at 2-8° C. and 6800 g for 6 minutes and stored at −80° C. The time point for blood collection was 0.083, 0.25, 0.5, 1, 2, 4, 8 and 24 hours after intravenous administration, and 0.25, 0.5, 1, 2, 4, 6, 8 and 24 hours after oral administration.

[2] = Brain tissue distribution test; type: in vivo; conditions: SD rats, PO 20 mg/kg
Method: 5 g of methyl cellulose was weighed and dissolved in 1000 mL of purified water to obtain 0.5% methyl cellulose. A required amount of the test compound was weighed and dissolved in 0.5% methylcellulose solution to obtain a suspension of 2 mg/mL.
Administration: SD rats were orally administered (PO) after overnight fasting. Feeding 4 hours after administration.
Sample Collection: 0.5 mL of blood was collected at each time point via the jugular vein. Samples were placed into tubes containing ethylenediamine tetraacetic acid dipotassium salt (K2EDTA) and kept on ice before centrifugation. Within 1 hour after blood collection, blood samples were centrifuged at 2-8° C. and 6800 g for 6 minutes and stored at −80° C. After the rats were euthanized by carbon dioxide inhalation, the brains of the rats were collected, quickly frozen on dry ice, and stored at −80° C. before bioanalysis. The time points for blood collection were 0.5 and 2 hours after oral administration.

Sequence of CYP 2C19 (P33261 whole entry): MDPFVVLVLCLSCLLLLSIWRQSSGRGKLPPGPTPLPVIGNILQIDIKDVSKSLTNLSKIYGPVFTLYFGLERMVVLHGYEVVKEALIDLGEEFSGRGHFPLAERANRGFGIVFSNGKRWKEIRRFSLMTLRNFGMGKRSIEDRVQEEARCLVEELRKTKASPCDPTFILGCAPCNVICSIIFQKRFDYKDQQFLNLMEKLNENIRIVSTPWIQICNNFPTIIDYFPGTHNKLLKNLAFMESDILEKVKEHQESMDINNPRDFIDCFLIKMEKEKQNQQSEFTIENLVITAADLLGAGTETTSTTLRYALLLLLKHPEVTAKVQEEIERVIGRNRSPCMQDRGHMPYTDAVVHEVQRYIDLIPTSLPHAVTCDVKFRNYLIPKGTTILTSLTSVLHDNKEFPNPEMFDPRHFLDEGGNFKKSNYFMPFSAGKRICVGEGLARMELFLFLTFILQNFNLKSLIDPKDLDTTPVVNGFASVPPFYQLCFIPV

`C=CC(=O)N1CCN(c2nc(=O)n(-c3c(C)ccnc3C(C)C)c3nc(-c4c(O)cccc4F)c(F)cc23)[C@@H](C)C1` [AMG510] gave an IC50 (CYP 2C19) greater than 10 µM, an F ([1]; oral gavage, 5 mg/kg) of 35.41% and an AUC(0-inf) ([1]; intravenous injection, 1 mg/kg) of 319 ng·h/mL. It also gave a Cmax ([1]; intravenous injection, 1 mg/kg) of 762 ng/mL, a clearance ([1]; intravenous injection, 1 mg/kg) of 50.7 mL/min/kg and a half-life ([1]; intravenous injection, 1 mg/kg) of 0.36 h. It also gave a Vd ([1]; intravenous injection, 1 mg/kg) of 1.57 L/kg, an AUC(0-inf) ([1]; oral gavage, 5 mg/kg) of 584 ng·h/mL and a Cmax ([1]; oral gavage, 5 mg/kg) of 1260 ng/mL. For the same compound, the half-life ([1]; oral gavage, 5 mg/kg) was 1.81 h, the “Brain concentration 0.5 hours after administration (ng/g)” value ([2]; 0.5 hours) was “Below detection limit” and the “Brain concentration 2 hours after administration (ng/g)” value ([2]; 2 hours) was “Below detection limit”.
Compound `C=C(F)C(=O)N1CCN(c2nc(OC[C@@H]3CCCN3C)nc3c2CCN(c2cccc4cccc(Cl)c24)C3)C[C@@H]1CC#N` [MRTX849] has an IC50 (CYP 2C19) greater than 10 µM, an F ([1]; oral gavage, 5 mg/kg) of 13.66% and an AUC(0-inf) ([1]; intravenous injection, 1 mg/kg) of 348 ng·h/mL. It also gave a Cmax ([1]; intravenous injection, 1 mg/kg) of 137 ng/mL, a clearance ([1]; intravenous injection, 1 mg/kg) of 48.1 mL/min/kg and a half-life ([1]; intravenous injection, 1 mg/kg) of 3.16 h. For the same compound, the Vd ([1]; intravenous injection, 1 mg/kg) was 13.1 L/kg, the AUC(0-inf) ([1]; oral gavage, 5 mg/kg) was 238 ng·h/mL and the Cmax ([1]; oral gavage, 5 mg/kg) was 23.3 ng/mL. It also gave a half-life ([1]; oral gavage, 5 mg/kg) of 2.8 h, a concentration at 0.5 h ([2]; Sprague-Dawley (SD), rat, brain, 0.5 hours, read-out: Brain concentration 0.5 hours after administration) of 8 ng/g and a concentration at 2 h ([2]; Sprague-Dawley (SD), rat, brain, 2 hours, read-out: Brain concentration 2 hours after administration) of 69.8 ng/g.
